From patent publication US20080057071A1, “Use Of Hedgehog Pathway Inhibitors In Small-Cell Lung Cancer” (priority 2003, published 2008)

Tests used:
Assay type in all cases: cell-based, human
Ptch mRNA = Ptch mRNA expression by northern blot analysis; conditions: NCI-H249 SCLC cells, FIG. 3g
NCI-H249 SCLC cells [1] = assay: Cell growth of NCI-H249 SCLC cells (MTT assay); conditions: for cell growth after compound treatment: NCI-H249 SCLC cells, 5 days, FIG. 3b
Procedure: (§1) MTT assays were performed as described (Sriuranpong (2002), supra).

NCI-H249 SCLC cells [2] = assay: Cell cycle analysis in NCI-H249 cells; conditions: unsynchronized NCI-H249 SCLC cells; 5 μM; 72 h; FIG. 3e
NCI-H249 SCLC cells [3] = assay: Cleaved PARP expression (apoptosis) by immunoblot; conditions: 5 μM, 72 h, FIG. 3f
Procedure: Whole-cell lysates were sonicated in 2% SDS/50 mM TrisHCl, pH 8. […] Anti-cleaved PARP was obtained from Promega.

[4] = tested on: BMP4, nestin and ASH-1 transcripts; assay: RT-PCR analysis of transcripts in NCI-H249 SCLC cells; conditions: 48 h, FIG. 3h
Procedure: Total cellular RNA was treated with DNAse, reverse transcribed, and amplified for 31 cycles at an annealing temperature of 55° C. Primers used were: […]

NCI-H249 SCLC cells [5] = assay: Soft agar clonogenicity of NCI-H249 SCLC cells; conditions: FIG. 4a, b
NCI-H157 NSCLC cells = assay: Cell growth of NCI-H157 NSCLC cells (MTT assay); conditions: 5 days, FIG. 3c
Procedure: as §1

CC1=C2C[C@H]3[C@@H](CC=C4C[C@@H](O)CC[C@@]43C)[C@@H]2CC[C@]12O[C@@H]1C[C@H](C)CN[C@H]1[C@H]2C [cyclopamine]
Ptch mRNA expression (Ptch mRNA): downregulation
growth inhibition by cyclopamine in cells stably expressing Flag-tagged GLI-1 (NCI-H249 SCLC cells [1]; NCI-H249 SCLC cells stably transfected with Flag-Gli1, MTT, FIG. 3d): protected NCI-H249 SCLC cells from growth inhibition
growth inhibition by cyclopamine in cells expressing GLI-1 mutant lacking the zinc finger DNA-binding domain (NCI-H249 SCLC cells [1]; NCI-H249 SCLC cells stably transfected with Flag-Gli1ZFD, MTT, FIG. 3d): had no effect
cell cycle effect (NCI-H249 SCLC cells [2]): arrest of the cell cycle in Go/G1
apoptosis (cleaved PARP) (NCI-H249 SCLC cells [3]): increase in cleaved PARP
BMP4 expression [4]: inhibited expression
human ASH-1 expression [4]: inhibited expression
nestin expression [4]: inhibited expression
soft agar clonogenicity effect in cells overexpressing GLI-1 (NCI-H249 SCLC cells [5]; NCI-H249 SCLC cells stably transfected with Flag-Gli1, cyclopamine 5 μM): reversed
soft agar clonogenicity (NCI-H249 SCLC cells [5]; NCI-H249 SCLC cells): reduced soft agar clonogenicity

CC1=C2C[C@H]3[C@@H](CC=C4CC(=O)CC[C@@]43C)[C@@H]2CC[C@]12O[C@@H]1C[C@H](C)CN(CCNC(=O)CCCCCNC(=O)CCc3ccccc3)[C@H]1[C@H]2C [KAAD-cyclopamine]
cell growth after compound treatment (NCI-H249 SCLC cells [1]): significant growth inhibition
cell growth after compound treatment (NCI-H157 NSCLC cells): None of KAAD-cyclopamine, cyclopamine or tomatidine was able to affect growth

C[C@H]1CC[C@]2(NC1)O[C@H]1C[C@H]3[C@@H]4CC[C@H]5C[C@@H](O)CC[C@]5(C)[C@H]4CC[C@]3(C)[C@H]1[C@@H]2C [tomatidine]
cell growth after compound treatment (NCI-H249 SCLC cells [1]): no effect
cell growth after compound treatment (NCI-H157 NSCLC cells): None of KAAD-cyclopamine, cyclopamine or tomatidine was able to affect growth
